Article PMC5532403, “Potential for a novel manganese porphyrin compound as adjuvant canine lymphoma therapy” (Cancer Chemotherapy and Pharmacology, 2017)
Where “and” joins values, the source holds several entries; their conditions need not be identical. Equal values may be shown once. Entries after “also recorded” stand apart in the source; their conditions may differ. Read-outs that look alike come from different tables or passages of the source.

Key:
[1] = tested on: normal dogs; experiment: Histopathologic evaluation of necropsy tissues; format: in vivo, dog; settings: 0.25 mg/kg Mon/Wed/Fri five doses
Experimental: Tissue samples collected at necropsy were stored in 10% neutral buffered formalin, paraffin embedded, sectioned, and stained with hematoxylin and eosin. Histopathologic evaluations of the tissues were performed by a veterinary pathologist (KGB).

[2] = set-up: method as in PMID 27098749; settings: non-human primates, 1 mg/kg; cited from earlier work
[3] = tested on: nonhuman primates; set-up: method as in PMID 27098749; settings: sc every 3 days for 5 weeks; cited from earlier work
[4] = Multiple dose pharmacokinetic study, plasma MnBuOE; format: in vivo, dog
Experimental: MnBuOE was administered at 0.25 mg/kg Monday, Wednesday, and Friday (MWF). Dogs were treated concurrently with diphenhydramine (2 mg/kg every 12 h), famotidine (0.5 mg/kg every 12 h), and prednisone (1 mg/kg every 12 h) throughout these studies. Blood/plasma was collected at two time points: 1 h post dose (expected high levels but “safely” away the peak at C max = 0.5 h) and just prior to injection (trough level). The results are presented on Fig. 4a. As expected, the trough levels measured were very low. […] This would imply that no change in the expected mild acute side effects should be observed. […] The change in pulse increased over time for both treatment week and day of the week. Baseline pulse prior to injection was not altered with multiple doses of MnBuOE.

[5] = set-up: method as in unpublished data; settings: rats, 1 mg/kg; ref unpublished data; cited from earlier work
[6] = tested on: normal dogs; experiment: Pulse monitoring in multiple dose study; format: in vivo, dog; settings: 0.25 mg/kg sc Mon/Wed/Fri
Experimental: (§1) Safety was assessed by evaluation of standard physical and laboratory parameters of systemic health. A full physical examination was performed prior to initiation of the study and on each treatment and sampling day. Indirect blood pressure monitoring was performed using Cardell Vet Monitor 9401 Blood Pressure Monitor. Pulse was quantified as heart beats per minute according to manual counts, as well as quantified with a blood pressure monitor. There was good correlation between pulse rates counted with manual methods compared to the blood pressure monitor (Figure S1). Standard laboratory assessments (complete blood cell count, biochemistry panel, urinalysis) were repeated throughout the phases of the study to assess systemic health.

[7] = tested on: normal dogs; experiment: Laboratory health assessments (complete blood cell count, biochemistry panel, urinalysis); format: in vivo, dog
Experimental: as §1

[8] = tested on: normal dogs; experiment: Maximally tolerated dose / single-dose safety monitoring (pulse, blood pressure, drug reactions); format: in vivo, dog; settings: for average heart rate at peak: 1 h after injection
Experimental: as §1
Thus, 1 mg/kg was selected as a safe initial dose for the MTD and single-dose PK studies in this work.

[9] = tested on: mice; set-up: method as in PMID 27098749; settings: sc every 3 days for 5 weeks; cited from earlier work
[10] = Single-dose pharmacokinetic study, plasma MnBuOE by LC-MS/MS; format: in vivo, dog
Experimental: Intravenous catheters were placed in the jugular vein of each dog under heavy sedation (dexmedetomidine, 500 mcg/m^2) 24-h prior to initiation of the pharmacokinetic study to facilitate blood sampling. Baseline pulse and blood pressure (Cardell Vet Monitor 9401 Blood Pressure Monitor) were recorded prior administration of MnBuOE. MnBuOE (5.64 mg/mL) was injected subcutaneously in the dorsal intrascapular region. Following injection, 3–6 mL of blood was collected after 10 min, 30 min, 1 h, 2 h, 4 h, 6 h, 8 h, 24 h, 48 h, 72 h, 7 days, and 14 days into lithium heparin tubes (Vacutainer, 1.3 mL). Whole blood was centrifuged at 1500×g for 20 min, and plasma was collected and stored in 1% citric acid at −80 °C.
Relevant PK parameters (e.g. C max, T max, AUC, clearance, t 1/2) were obtained by compartmental and non-compartmental modules within WinNonlin v. Plasma MnBuOE levels peaked at 30 min post-injection with a mean concentration of 3.993 μM (Fig. 2a), followed by a complex tissue distribution profile (non-linear trace in log-linear plot) within first 6 h post injection (Fig. 2a). […] Compartmental (first-order absorption—2 compartment model) calculations including 0–48 h data were performed on the averaged PK profile for the purpose of obtaining PK parameters needed for the simulation of the multi-dose regimen.

[11] = mice, cited from earlier work
[12] = tested on: murine lymphoma cell lines; set-up: method as in PMID 19549914, PMID 25725417; settings: in vitro; cited from earlier work
[13] = set-up: method as in PMID 26496207; settings: cited from earlier work
[14] = tested on: primary human lymphoma samples; set-up: method as in PMID 19549914, PMID 25725417; settings: ex vivo; cited from earlier work
[15] = 0.25 mg/kg sc Mon/Wed/Fri for 3 weeks, 1 h post-injection
[16] = 3 weeks post 0.25 mg/kg Mon/Wed/Fri, concurrent oral medications
[17] = single 1 mg/kg sc, first order absorption two compartments
[18] = single 1 mg/kg sc, non-compartmental

## CCCCOCC[n+]1ccccc1-c1c2nc(c(-c3cccc[n+]3CCOCCCC)c3ccc([n-]3)c(-c3cccc[n+]3CCOCCCC)c3nc(c(-c4cccc[n+]4CCOCCCC)c4ccc1[n-]4)C=C3)C=C2.[Mn+3] [MnBuOE, Mn(III) meso-tetrakis (N-n-butoxyetylpyridium-2-yl) porphyrin]
[1]; necropsy
  Characteristics of lesion, kidney: Acute, multifocal, mild Acute multifocal, moderate
  Characteristics of lesion, liver: Marked, multifocal to diffuse, random Marked, multifocal to diffuse, centrilobular to random Marked, diffuse, panlobular, random
  Characteristics of lesion, lung: Multifocal, mild, neutrophilic, sterile Multifocal, moderate, neutrophilic sterile
  Characteristics of lesion, subcutaneous adipose: Multifocal, mild
  Histopathologic appearance, lymph nodes: mildly reactive
  Incidence of diagnosis, kidney: n = 3/3
  Incidence of diagnosis, liver: n = 3/3
  Incidence of diagnosis, lung: n = 3/3
  Incidence of diagnosis, subcutaneous adipose: n = 3/3
[1]; necropsy 48 h after last dose
  Histopathologic diagnosis, kidney: acute, mild to moderate tubular degeneration and necrosis of the kidney
  Histopathologic diagnosis, liver: marked hydropic degeneration of the liver
  Histopathologic diagnosis, lung: mild to moderate sterile bronchointerstitial/interstitial pneumonia
  Histopathologic diagnosis, subcutaneous adipose (injection site): mild necrosupporative/granulomatous inflammation; also recorded: Necrosuppurative/granulomatous steatitis
[2]
  Cmax: 1600 nM
[3]
  no adverse effects level (NOAEL), loading dose: 6 mg/kg
  no adverse effects level (NOAEL), maintenance dose: 2 mg/kg
[4]; [15]
  plasma MnBuOE concentration following the initial dose: 1.4 µM
  plasma MnBuOE concentration plateau with subsequent doses: 0.85 to 1.1 µM
[4]; 0.25 mg/kg sc Mon/Wed/Fri, just prior to injection
  trough plasma levels: very low
[4]; 0.25 mg/kg sc Mon/Wed/Fri, long-term treatment
  accumulation of the drug in plasma: no accumulation of the drug in plasma was observed; also recorded: no accumulation observed over time
[5]
  Cmax: 1000 nM
[6]
  heart rate 1 h after each injection: Mildly to moderately increased heart rate
[6]; multiple doses
  baseline pulse prior to injection: not altered
[7]; 3 weeks post 0.25 mg/kg Mon/Wed/Fri
  Urinalysis: Alkaline urine (pH = 9) (n = 2/3)
[7]; 3 weeks post 0.25 mg/kg Mon/Wed/Fri, concurrent diphenhydramine, famotidine, prednisone
  Complete blood cell count: Stress leukogram (exogenous glucocorticoids) (n = 3/3)
[7]; [16]
  Chemistry panel: acid-base finding: Slight to mild metabolic acidosis (increased anion gap)
  Chemistry panel: cholesterol finding: Mild hypocholesterolemia
  Chemistry panel: liver enzyme finding: Mildly increased liver enzyme activity (ALP, ALT)
[7]; 48 h post 0.25 mg/kg
  Chemistry panel: No remarkable changes in serum biochemistries were seen; also recorded: Unremarkable
  Complete blood cell count: Unremarkable
[7]; 48 h post 0.25 mg/kg, one dog analyzed
  Urinalysis: Alkaline urine (pH = 9) (n = 1/1)
[7]; 48 h post 1 mg/kg
  Chemistry panel: Unremarkable
  Complete blood cell count: Unremarkable
  Urinalysis: Alkaline urine (pH = 9) (n = 2/3)
[7]; final day of 3-week 0.25 mg/kg study, reference range 11.2–19.9
  mean anion gap: 21.5
[7]; final day of 3-week 0.25 mg/kg study, reference range 12–54 IU/L
  mean ALT: 133 IU/L
[7]; final day of 3-week 0.25 mg/kg study, reference range 16–140 IU/L
  mean ALP: 203 IU/L
[7]; final day of 3-week 0.25 mg/kg study, reference range 124–344 mg/dL
  mean cholesterol: 96 mg/dL
[8]; 0.25 mg/kg sc
  heart rate following injection: 104–116 beats per minute
  pulse 24 h post-injection: did not alter pulse rate 24 h post-injection; also recorded: normalized by 24 h
  tachycardia grade: did not induce a clinical tachycardia; also recorded: mild increase in heart rate
[8]; 0.25 mg/kg sc with premedication
  anaphylactic or local drug reactions: No anaphylactic or local drug reactions were observed
[8]; 0.5 mg/kg sc
  local drug reaction at the injection site: No local drug reaction at the injection site was noted
  pulse 24 h post-injection: remained slightly increased
  tachycardia grade: mild to moderate tachycardia
[8]; 0.5 mg/kg sc, one dog
  average heart rate at peak: 144 beats per minute
[8]; 0.5 mg/kg sc, one dog, pre-administration of diphenhydramine, famotidine, prednisone
  anaphylactic reaction: did not occur
[8]; 1 mg/kg sc
  blood pressure change with tachycardia: not associated with changes in blood pressure
  local drug reactions in the subcutaneous site of injection: occurred with two of the dogs
  persistence of tachycardia: at least 6 h
  pulse 24 h post-injection: remained increased compared to resting heart rates
  tachycardia grade: severe sinus tachycardia
  average heart rate at peak: 210 beats per minute
[8]; 1 mg/kg sc, following injection
  time to development of acute anaphylactic drug reaction: 15 to 20 min
[8]; 1 mg/kg sc, no premedication
  acute drug reaction: acute anaphylactic drug reaction; also recorded: induced an anaphylactic drug reaction
[8]; sc, dogs, with premedication (anti-histamines, steroids)
  maximum tolerated dose (MTD): 0.25 mg/kg
[8]; single sc dose, Supplemental Fig. 2
  indirect blood pressure after single dose: subclinical fluctuations in recorded indirect blood pressures
[9]
  no adverse effects level (NOAEL), loading dose: 12 mg/kg
  no adverse effects level (NOAEL), maintenance dose: 2 mg/kg
[10]; single 1 mg/kg sc, 6 to 48 h
  plasma half-life t 1/2, primary elimination from central compartment: 7 h
[10]; single 1 mg/kg sc, 30 min post-injection, 1 mg/kg, read-out: peak plasma concentration (C max), mean
  Cmax: 3990 nM and 4000 nM
[10]; single 1 mg/kg sc, 48 h to 14 days
  estimated terminal half-life (secondary processes): 480 h
[10]; single 1 mg/kg sc, at 48 h
  MnBuOE remaining in plasma: 1%
[10]; single 1 mg/kg sc, post-injection
  time of peak plasma drug concentration (T max): 0.5 h
[10]; [17]
  AUCinfinite: 42.52
  C max: 4830 ng/mL
  CL/F: 0.02 L/h/kg body weight
  V/F (4–48 h process): 0.14 L/kg body weight
  t 1/2 (4–48 h): 6.64 h
[10]; single 1 mg/kg sc, first order absorption two compartments, averaged profile 0–48 h
  t max: 0.46 h
[10]; [18]
  AUC0–48h: 52.09
  AUCinfinite: 57.82
  C max: 5000 ng/mL
  CL/F: 0.020 L/h/kg body weight
  V/F (4–48 h process): 0.21 L/kg body weight
  V/F (7–14 day process): 13.42 L/kg body weight
  t 1/2 (4–48 h): 7.13 h
  t 1/2 (7–14 day): 509.8 h
[10]; single 1 mg/kg sc, non-compartmental (WinNonlin), individual dogs
  t max: 0.5 h
[10]; single-dose 14-day PK study, after 48 h
  drug eliminated from the plasma: 99%
[11]; 1 mg/kg, ref unpublished data
  Cmax: 1000 nM
[11]; dose adjusted from 6 mg/kg
  Cmax: ~300 nM

## CC[n+]1ccccc1-c1c2nc(c(-c3cccc[n+]3CC)c3ccc([n-]3)c(-c3cccc[n+]3CC)c3nc(c(-c4cccc[n+]4CC)c4ccc1[n-]4)C=C3)C=C2.[Mn+3] [MnTE-2-PyP5+]
[12]
  effect on chemotherapeutic response: enhanced the chemotherapeutic response
[13]
  tissue accumulation, tumor compared to normal tissue: accumulates preferentially in tumor tissue compared to normal tissue
[14]
  effect on chemotherapeutic response: enhanced the chemotherapeutic response
